Measured values: patent publication US8758816B2, “Compositions comprising azelastine and methods of use thereof” (priority 2004, dated 2014)

Tested on: patients with seasonal allergic rhinitis (SAR)
Assay: MP 428 two-week randomized double-blind study: Total Nasal Symptom Score (TNSS), change from baseline
Type: in vivo, human
Set-up: key to Change from Baseline in AM TNSS, Mean / Change from Baseline in AM TNSS, LS Mean / Change from Baseline in AM TNSS, Median: TNSS sum of 4 symptoms each 0-3 (0=none, 3=severe); change from baseline
Method: A two-week, randomized, double-blind study, which evaluated the effects of the co-administration of ASTELIN® (azelastine hydrochloride (HCl)) and FLONASE® (fluticasone propionate) compared to either product alone in patients with seasonal allergic rhinitis (SAR) was conducted during the 2006 Texas mountain cedar season. After a 5-day placebo lead-in period, 151 patients with moderate-to-severe allergic rhinitis symptoms were randomized to either: (1) (49 total patients) ASTELIN® (azelastine hydrochloride (HCl)) plus placebo saline nasal spray 2 sprays per nostril, 15 minutes apart, twice daily (AM & PM); (2) (50 total patients) FLONASE® (fluticasone propionate) plus placebo saline nasal spray, 2 sprays per nostril, 15 minutes apart, once daily (AM) and two sessions of placebo saline nasal spray, 2 sprays per nostril, 15 minutes apart (PM); or (3) (52 total patients) the co-administration of ASTELIN® (azelastine hydrochloride (HCl)) 2 sprays per nostril plus FLONASE® (fluticasone propionate) 2 sprays per nostril (AM), 15 minutes apart, and ASTELIN® (azelastine hydrochloride (HCl)) 2 sprays per nostril plus placebo saline nasal spray, 15 minutes apart, (PM) for a 2-week double-blind treatment period.
The primary efficacy variable was the change from baseline in the Total Nasal Symptom Score (TNSS), which comprised sneezing, itchy nose, runny nose, and nasal congestion (individual symptoms scores were assigned a value between 0 and 3, where 0=no symptoms and 3=severe symptoms). This study was not statistically designed to assess the differences between ASTELIN® and FLONASE®.

[1] = Day 9, Intent-to-Treat Population
[2] = Day 10, Intent-to-Treat Population
[3] = Day 10, Per-Protocol Population
[4] = Day 11, Intent-to-Treat Population
[5] = Day 11, Per-Protocol Population
[6] = Day 12, Intent-to-Treat Population

CCC(=O)O[C@]1(C(=O)SCF)[C@H](C)C[C@H]2[C@@H]3C[C@H](F)C4=CC(=O)C=C[C@]4(C)[C@@]3(F)[C@@H](O)C[C@@]21C [Fluticasone, fluticasone propionate]
Change from Baseline in AM TNSS, Median [1]: −1.83
Change from Baseline in AM and PM Combined TNSS, Mean [1]: −5.08
Change from Baseline in AM and PM Combined TNSS, Median [1]: −4.58
Change from Baseline in PM TNSS, LS Mean [1]: −2.73
Change from Baseline in PM TNSS, Mean [1]: −2.69
Change from Baseline in PM TNSS, Median [1]: −2.00
Percent Change from Baseline in AM TNSS, LS Mean [1]: −24.94%
Percent Change from Baseline in AM TNSS, Mean [1]: −24.52%
Percent Change from Baseline in AM TNSS, Median [1]: −21.95%
Percent Change from Baseline in AM and PM Combined TNSS, LS Mean [1]: −26.50%
Percent Change from Baseline in AM and PM Combined TNSS, Mean [1]: −25.94%
Percent Change from Baseline in AM and PM Combined TNSS, Median [1]: −23.40%
Percent Change from Baseline in PM TNSS, LS Mean [1]: −27.82%
Percent Change from Baseline in PM TNSS, Mean [1]: −27.18%
Percent Change from Baseline in PM TNSS, Median [1]: −22.22%
Change from Baseline in AM and PM Combined TNSS, LS Mean (Day 9, Intent-to-Treat Population, ANCOVA model): −5.17
Change from Baseline in AM and PM Combined TNSS, LS Mean (Day 9, Per-Protocol Population): −5.21
Change from Baseline in AM and PM Combined TNSS, Mean (Day 9, Per-Protocol Population): −5.18
Change from Baseline in AM and PM Combined TNSS, Median (Day 9, Per-Protocol Population): −4.58
Percent Change from Baseline in AM and PM Combined TNSS, LS Mean (Day 9, Per-Protocol Population): −26.65%
Percent Change from Baseline in AM and PM Combined TNSS, Mean (Day 9, Per-Protocol Population): −26.33%
Percent Change from Baseline in AM and PM Combined TNSS, Median (Day 9, Per-Protocol Population): −23.40%
Change from Baseline in AM TNSS, LS Mean [2]: −2.74
Change from Baseline in AM TNSS, Mean [2]: −2.73
Change from Baseline in AM TNSS, Median [2]: −2.80
Change from Baseline in AM and PM Combined TNSS, Mean [2]: −5.61
Change from Baseline in AM and PM Combined TNSS, Median [2]: −4.83
Change from Baseline in PM TNSS, LS Mean [2]: −2.90
Change from Baseline in PM TNSS, Mean [2]: −2.88
Change from Baseline in PM TNSS, Median [2]: −2.60
Percent Change from Baseline in AM TNSS, LS Mean [2]: −28.09%
Percent Change from Baseline in AM TNSS, Mean [2]: −28.06%
Percent Change from Baseline in AM TNSS, Median [2]: −28.36%
Percent Change from Baseline in AM and PM Combined TNSS, LS Mean [2]: −28.93%
Percent Change from Baseline in AM and PM Combined TNSS, Mean [2]: −28.76%
Percent Change from Baseline in AM and PM Combined TNSS, Median [2]: −27.10%
Percent Change from Baseline in PM TNSS, LS Mean [2]: −29.73%
Percent Change from Baseline in PM TNSS, Mean [2]: −29.48%
Percent Change from Baseline in PM TNSS, Median [2]: −27.27%
Change from Baseline in AM and PM Combined TNSS, LS Mean (Day 10, Intent-to-Treat Population, ANCOVA model): −5.64
Change from Baseline in AM and PM Combined TNSS, LS Mean [3]: −5.70
Change from Baseline in AM and PM Combined TNSS, Mean [3]: −5.74
Change from Baseline in AM and PM Combined TNSS, Median [3]: −4.83
Percent Change from Baseline in AM and PM Combined TNSS, LS Mean [3]: −29.19%
Percent Change from Baseline in AM and PM Combined TNSS, Mean [3]: −29.26%
Percent Change from Baseline in AM and PM Combined TNSS, Median [3]: −27.10%
Change from Baseline in AM TNSS, LS Mean [4]: −2.52
Change from Baseline in AM TNSS, Mean [4]: −2.49
Change from Baseline in AM TNSS, Median [4]: −2.00
Change from Baseline in AM and PM Combined TNSS, Mean [4]: −5.77
Change from Baseline in AM and PM Combined TNSS, Median [4]: −4.83
Change from Baseline in PM TNSS, LS Mean [4]: −3.33
Change from Baseline in PM TNSS, Mean [4]: −3.29
Change from Baseline in PM TNSS, Median [4]: −3.00
Percent Change from Baseline in AM TNSS, LS Mean [4]: −25.25%
Percent Change from Baseline in AM TNSS, Mean [4]: −25.02%
Percent Change from Baseline in AM TNSS, Median [4]: −18.37%
Percent Change from Baseline in AM and PM Combined TNSS, LS Mean [4]: −29.71%
Percent Change from Baseline in AM and PM Combined TNSS, Mean [4]: −29.30%
Percent Change from Baseline in AM and PM Combined TNSS, Median [4]: −27.71%
Percent Change from Baseline in PM TNSS, LS Mean [4]: −34.15%
Percent Change from Baseline in PM TNSS, Mean [4]: −33.54%
Percent Change from Baseline in PM TNSS, Median [4]: −33.33%
Change from Baseline in AM and PM Combined TNSS, LS Mean (Day 11, Intent-to-Treat Population, ANCOVA model): −5.85
Change from Baseline in AM and PM Combined TNSS, LS Mean [5]: −5.89
Change from Baseline in AM and PM Combined TNSS, Mean [5]: −5.89
Change from Baseline in AM and PM Combined TNSS, Median [5]: −4.83
Percent Change from Baseline in AM and PM Combined TNSS, LS Mean [5]: −29.83%
Percent Change from Baseline in AM and PM Combined TNSS, Mean [5]: −29.69%
Percent Change from Baseline in AM and PM Combined TNSS, Median [5]: −27.71%
Change from Baseline in AM TNSS, LS Mean [6]: −2.99
Change from Baseline in AM TNSS, Mean [6]: −2.98
Change from Baseline in AM TNSS, Median [6]: −2.75
Change from Baseline in AM and PM Combined TNSS, Mean [6]: −6.08
Change from Baseline in AM and PM Combined TNSS, Median [6]: −5.17
Change from Baseline in PM TNSS, LS Mean [6]: −3.13
Change from Baseline in PM TNSS, Mean [6]: −3.10
Change from Baseline in PM TNSS, Median [6]: −3.00
Percent Change from Baseline in AM TNSS, LS Mean [6]: −30.64%
Percent Change from Baseline in AM TNSS, Mean [6]: −30.49%
Percent Change from Baseline in AM TNSS, Median [6]: −26.83%
Percent Change from Baseline in AM and PM Combined TNSS, LS Mean [6]: −31.31%
Percent Change from Baseline in AM and PM Combined TNSS, Mean [6]: −31.04%
Percent Change from Baseline in AM and PM Combined TNSS, Median [6]: −27.78%
Percent Change from Baseline in PM TNSS, LS Mean [6]: −32.00%
Percent Change from Baseline in PM TNSS, Mean [6]: −31.52%
